{
  "source": "patent US11014908B2",
  "about": "“Chemical compounds” (Pfizer Inc., priority 2018, dated 2021)",
  "key": {"human HbA": {"molecular_target": "human HbA (Homo sapiens, UniProt P68871+P69905)", "test": "Co-crystallization with HbA", "conditions": "1.85 Å co-crystal structure with human HbA", "description": "Co-Crystallization with HbA\nThe binding of the compound of Example 58 to hemoglobin (Hb) was further investigated through co-crystallization experiments. Given the structural and functional similarity of HbS and HbA, and the large quantity of material needed for structural studies, purified HbA was utilized for these studies.\nHbA with Example 58 was crystallized according to published protocols (Lee et al. “Crowning proteins: modulating the protein surface properties using crown ethers”, Angew Chem Int Ed Engl 2014; 53(48):13054-13058). Briefly, 20 mg/mL HbA in 20 mM Tris-HCl (pH 8.0) was mixed with equal volume of 50 mM 18-crown-6 solution and incubated at 20° C. for 20 minutes. Example 58 was then added to a final concentration of 1.5 mM and further incubated for an additional 1 hr. Crystallization was performed at 20° C. using hanging drop vapor diffusion method by mixing equal volumes of protein and reservoir solution containing 0.1 M Tris-HCl (pH 8.0), 0.2 M Li2SO4 and 30-32% PEG 3350. Crystals grew to their maximum size in ˜2 days and the crystals were further soaked overnight with 10 mM Example 58. Diffraction data were collected at the Argonne National Laboratory Advanced Photon Source, beamline 17-ID. The data was processed using autoPROC (Global Phasing Limited) and the structure was solved using 3WHM (PDB code) as a starting model. […]"}, "Hb in dog whole blood": {"molecular_target": "T1, Hb in dog whole blood (Canis lupus familiaris, UniProt P60524+P60529)", "T1 construct": "measured in human, dog, and mouse whole blood; from tissue; host or cells: dog whole blood", "test": "Whole blood oxygen affinity assay (Hemox analyzer), dog blood", "conditions": "1 mM compound, 1 hour at 25 C, relative to DMSO", "description": "(§1) Whole Blood Oxygen Affinity Assay\n(§2) Oxygen affinity is a marker of the ability of Hb to bind and release oxygen in solution. It can be determined in whole blood by measuring the percentage of oxygenated and deoxygenated Hb present at a given oxygen concentration. Oxygen affinity is expressed as the p50, the partial pressure of oxygen at which 50% of the Hb in solution has oxygen bound, or the p20, the partial pressure of oxygen at which 20% of the Hb in solution has oxygen bound.\n(§3) To determine the effects of compounds of the invention on oxygen affinity the p50 and p20 were measured in human, dog, and mouse whole blood using a Hemeox Analyzer (TCS Scientific). The blood was spiked with a compound of the invention to a concentration of 1 mM and incubated for 1 hour at 25 C with constant rotation. A concentration of 1 mM of compound was selected to approximate 20% hemoglobin occupancy in whole blood. Controls with the same concentration of DMSO, but no compound were incubated in the same way at the same time. Following incubation, samples were immediately assayed for oxygen affinity using the Hemox analyzer. […] Once samples had reached an pO2 of >150 torr, the measurement was initiated by switching to N2, and the percent oxyhemoglobin as a function of partial pressure was recorded. The p20 and p50 of each sample were recorded from the instrument readout. […]"}, "Hb in mouse whole blood": {"test_system": "Hb in mouse whole blood", "test": "Whole blood oxygen affinity assay (Hemox analyzer), mouse blood", "conditions": "1 mM compound, 1 hour at 25 C, relative to DMSO", "description": "as §1, §2, §3"}},
  "data": [
    {"molecule": "C[C@H](Oc1cc2cc(F)ccc2nc1N)c1nc(O)ccc1-n1cccn1", "note": "[Example 58, 6-{(1S)-1-[(2-amino-6-fluoroquinolin-3-yl)oxy]ethyl}-5-(1H-pyrazol-1-yl)pyridin-2-ol]", "values": [
      {"measurement": "Hb conformation bound in co-crystal structure", "setting": "human HbA", "value": "binds to the oxygenated (R state) conformation of Hb"},
      {"measurement": "Reduction in p20 (%) Dog", "setting": "Hb in dog whole blood", "value": "10 ± 6", "unit": "%"},
      {"measurement": "Reduction in p50 (%) Dog", "setting": "Hb in dog whole blood", "value": "6 ± 6", "unit": "%"},
      {"measurement": "Reduction in p20 (%) Mouse", "setting": "Hb in mouse whole blood", "value": "11 ± 2", "unit": "%"},
      {"measurement": "Reduction in p50 (%) Mouse", "setting": "Hb in mouse whole blood", "value": "5 ± 3", "unit": "%"}
    ]}
  ]
}
